Paper PMC2375326, “In vitro evaluation of amino acid prodrugs of novel antitumour 2-(4-amino-3-methylphenyl)benzothiazoles” (British Journal of Cancer, 2002)

Assays:
[1] = tested on: OVCAR-5; test: NCI in vitro cytotoxicity assay (SRB), OVCAR-5; assay type: cell-based; conditions: Homo sapiens, 48 h exposure, sulforhodamine B assay, mean graph, read-out: Log10 GI50 (OVCAR-5) (converted)
Procedure: (§1) Cell culture and drug application procedures have been described previously ([Boyd and Paull, 1995]). Briefly, cell lines were inoculated into a series of 96-well microtiter plates, with varied seeding densities depending on growth characteristics of each cell line. Following a 24 h drug free incubation, test agents were added at five 10-fold dilutions with a maximum concentration of 100 μM. Cellular protein levels were determined after 48 h drug exposure by sulphorhodamine B colorimetry.

[2] = tested on: COLO 205; test: NCI in vitro cytotoxicity assay (SRB), COLO 205; assay type: cell-based; conditions: Homo sapiens, 48 h exposure, sulforhodamine B assay, mean graph, read-out: Log10 GI50 (COLO 205) (converted)
Procedure: as §1

[3] = tested on: UO 31; test: NCI in vitro cytotoxicity assay (SRB), UO 31; assay type: cell-based; conditions: Homo sapiens, 48 h exposure, sulforhodamine B assay, mean graph, read-out: Log10 GI50 (UO 31) (converted)
Procedure: as §1

[4] = tested on: 786-0; test: NCI in vitro cytotoxicity assay (SRB), 786-0; assay type: cell-based; conditions: Homo sapiens, 48 h exposure, sulforhodamine B assay, mean graph, read-out: Log10 GI50 (786-0) (converted)
Procedure: as §1

[5] = tested on: IGROV1; test: NCI in vitro cytotoxicity assay (SRB), IGROV1; assay type: cell-based; conditions: Homo sapiens, IGROV-1; 48 h exposure, sulforhodamine B assay, mean graph; read-out: Log10 GI50 (IGROV1) (converted)
Procedure: as §1

[6] = tested on: HCT-116; test: NCI in vitro cytotoxicity assay (SRB), HCT-116; assay type: cell-based; conditions: Homo sapiens, 48 h exposure, sulforhodamine B assay, mean graph, read-out: Log10 GI50 (HCT-116) (converted)
Procedure: as §1

[7] = tested on: A498; test: NCI in vitro cytotoxicity assay (SRB), A498; assay type: cell-based; conditions: Homo sapiens, 48 h exposure, sulforhodamine B assay, mean graph, read-out: Log10 GI50 (A498) (converted)
Procedure: as §1

[8] = tested on: NCI in vitro panel of human derived cancer cell lines; test: NCI in vitro cytotoxicity assay (SRB), whole panel mean graph; assay type: cell-based; conditions: average GI50 over the panel, 48 h exposure, sulforhodamine B assay, read-out: Log10 GI50 (MG_MID) (converted)
Procedure: as §1

[9] = tested on: HS 578T; test: NCI in vitro cytotoxicity assay (SRB), HS 578T; assay type: cell-based; conditions: Homo sapiens, 48 h exposure, sulforhodamine B assay, mean graph, read-out: Log10 GI50 (HS 578T) (converted)
Procedure: as §1

[10] = tested on: HT29; test: NCI in vitro cytotoxicity assay (SRB), HT29; assay type: cell-based; conditions: Homo sapiens, HT-29; 48 h exposure, sulforhodamine B assay, mean graph; read-out: Log10 GI50 (HT29) (converted)
Procedure: as §1

[11] = tested on: LOX IMVI; test: NCI in vitro cytotoxicity assay (SRB), LOX IMVI; assay type: cell-based; conditions: Homo sapiens, 48 h exposure, sulforhodamine B assay, mean graph, read-out: Log10 GI50 (LOX IMVI) (converted)
Procedure: as §1

[12] = tested on: T-47D; test: NCI in vitro cytotoxicity assay (SRB), T-47D; assay type: cell-based; conditions: Homo sapiens, T47D; 48 h exposure, sulforhodamine B assay, mean graph; read-out: Log10 GI50 (T-47D) (converted)
Procedure: as §1

[13] = tested on: SK-MEL-2; test: NCI in vitro cytotoxicity assay (SRB), SK-MEL-2; assay type: cell-based; conditions: Homo sapiens, 48 h exposure, sulforhodamine B assay, mean graph, read-out: Log10 GI50 (SK-MEL-2) (converted)
Procedure: as §1

[14] = tested on: DU-145; test: NCI in vitro cytotoxicity assay (SRB), DU-145; assay type: cell-based; conditions: Homo sapiens, 48 h exposure, sulforhodamine B assay, mean graph, read-out: Log10 GI50 (DU-145) (converted)
Procedure: as §1

[15] = tested on: OVCAR-8; test: NCI in vitro cytotoxicity assay (SRB), OVCAR-8; assay type: cell-based; conditions: Homo sapiens, 48 h exposure, sulforhodamine B assay, mean graph, read-out: Log10 GI50 (OVCAR-8) (converted)
Procedure: as §1

[16] = tested on: MDA-MB-231/ATCC; test: NCI in vitro cytotoxicity assay (SRB), MDA-MB-231/ATCC; assay type: cell-based; conditions: Homo sapiens, 48 h exposure, sulforhodamine B assay, mean graph, read-out: Log10 GI50 (MDA-MB-231/ATCC) (converted)
Procedure: as §1

[17] = tested on: SW-620; test: NCI in vitro cytotoxicity assay (SRB), SW-620; assay type: cell-based; conditions: Homo sapiens, 48 h exposure, sulforhodamine B assay, mean graph, read-out: Log10 GI50 (SW-620) (converted)
Procedure: as §1

[18] = tested on: PC-3; test: NCI in vitro cytotoxicity assay (SRB), PC-3; assay type: cell-based; conditions: Homo sapiens, 48 h exposure, sulforhodamine B assay, mean graph, read-out: Log10 GI50 (PC-3) (converted)
Procedure: as §1

[19] = tested on: MOLT-4; test: NCI in vitro cytotoxicity assay (SRB), MOLT-4; assay type: cell-based; conditions: Homo sapiens, 48 h exposure, sulforhodamine B assay, mean graph, read-out: Log10 GI50 (MOLT-4) (converted)
Procedure: as §1

[20] = tested on: CYP1A1 protein expression in MCF-7 cells; test: Western blot of CYP1A1 protein, MCF-7 lysates; assay type: cell-based, human; conditions: 1 μM, 24 h
Procedure: Whole cell lysates were prepared for examination of CYP1A1 protein expression from untreated MCF-7, IGROV-1 and HCT 116 cultures and following exposure of cells to compounds 1, 2, 2a, 2b, 3, 3a, 3b, 4, 4a and 4b. Following protein determination (n=3, [Bradford, 1976]) and addition of sample buffer, samples were boiled at 95°C for 5 min and solubilised proteins (50 μg) were separated by sodium dodecyl sulphate (SDS) polyacrylamide gel (10%) electrophoresis. Proteins were electroblotted to polyvinylidene difluoride (PVDF) membranes and probed for CYP1A1 protein with polyclonal antiserum specific for human CYP1A1/1A2 (Gentest Corporation). Secondary antibody was conjugated to alkaline phosphatase, and CYP1A1 was detected following brief (<10 min) incubation with bromochloroindolyl phosphate and nitro-blue tetrazolium in alkaline phosphatase buffer. Molecular weight markers and a positive control of recombinant CYP1A1 (Gentest Corporation), included in all blots, confirmed detection of 52 kDa CYP1A1 protein.

[21] = tested on: HOP-62; test: NCI in vitro cytotoxicity assay (SRB), HOP-62; assay type: cell-based; conditions: Homo sapiens, 48 h exposure, sulforhodamine B assay, mean graph, read-out: Log10 GI50 (HOP-62) (converted)
Procedure: as §1

[22] = tested on: U251; test: NCI in vitro cytotoxicity assay (SRB), U251; assay type: cell-based; conditions: Homo sapiens, U-251; 48 h exposure, sulforhodamine B assay, mean graph; read-out: Log10 GI50 (U251) (converted)
Procedure: as §1

[23] = tested on: NCI/ADR-RES; test: NCI in vitro cytotoxicity assay (SRB), NCI/ADR-RES; assay type: cell-based; conditions: Homo sapiens, 48 h exposure, sulforhodamine B assay, mean graph, read-out: Log10 GI50 (NCI/ADR-RES) (converted)
Procedure: as §1

[24] = tested on: OVCAR-3; test: NCI in vitro cytotoxicity assay (SRB), OVCAR-3; assay type: cell-based; conditions: Homo sapiens, 48 h exposure, sulforhodamine B assay, mean graph, read-out: Log10 GI50 (OVCAR-3) (converted)
Procedure: as §1

Row | SMILES | GI50 [1] | GI50 [2] | GI50 [3] | GI50 [4] | GI50 [5] | GI50 [6] | GI50 [7] | GI50 [8] | GI50 [9] | GI50 [10] | GI50 [11] | GI50 [12] | GI50 [13] | GI50 [14] | GI50 [15] | GI50 [16] | GI50 [17] | GI50 [18] | GI50 [19] | CYP1A1 protein expression (Western blot) [20] | other results
1 | Cc1cc(-c2nc3cc(F)ccc3s2)ccc1N [Compound 2, 2-(4-Amino-3-methylphenyl)-5-fluorobenzothiazole] | 0.0107 µM | 66.1 µM | 85.1 µM | 24 µM | < 0.01 µM | 15.8 µM | 2.82 µM | 11 µM | 46.8 µM | 63.1 µM | > 100 µM | < 0.01 µM | > 100 µM | 95.5 µM | > 100 µM | 17.4 µM | > 100 µM | 23.4 µM | > 100 µM | induced | GI50 [21]: 18.6 µM; GI50 [22]: 41.7 µM; GI50 [23]: 66.1 µM; GI50 [24]: 24.5 µM
2 | Cc1cc(-c2nc3cc(F)ccc3s2)ccc1NC(=O)[C@@H](N)CCCCN [Compound 2b] | 0.126 µM | 3.31 µM | 3.09 µM | 4.07 µM | < 0.01 µM | 2.88 µM | 12.6 µM | 2.51 µM | 3.63 µM | 3.24 µM | 2 µM | < 0.01 µM | 2.51 µM | 16.2 µM | 11.2 µM | 3.55 µM | 3.63 µM | 12.6 µM | 1 µM | induced | GI50 [21]: 6.31 µM; GI50 [22]: 2.14 µM; GI50 [23]: 15.1 µM; GI50 [24]: 10.7 µM
